Laboratory results: patent publication US20020137929A1, “1 - (3-heterocyclylphenyl) isothiourea, -isourea, -guanidine and -amidine herbicidal agents” (Intellectual Property Department, BASF Aktiengesellschaft, priority 1998, published 2002)

Legend:
[1] = system: AMBEL (Ragweed, Common); test: Postemergence herbicidal evaluation; format: in vivo, Ambrosia artemisifolia; settings: for AMBEL herbicidal rating: postemergence
Method in brief: (§1)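 Each compound, dispersed in an acetone/water mix (50/50) carrying 0.5% TWEEN 20, is nozzle-sprayed at 40 psi on approximately two-week-old seedlings at about 0.0156–0.500 kg/ha. Plants are assessed 4–5 weeks afterward on a 0–9 scale relative to control; duplicate tests are averaged.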

[2] = system: IPOHE (Morningglory, Ivyleaf); test: Postemergence herbicidal evaluation; format: in vivo, Ipomoea hederacea; settings: for IPOHE herbicidal rating: postemergence
Method in brief: as §1

[3] = system: GLXMAW (Soybean, Williams); test: Postemergence herbicidal evaluation; format: in vivo, Glycine max, (L.) Merr. cv Williams; settings: for GLXMAW herbicidal rating: postemergence
Method in brief: as §1

[4] = system: ZEAMX (Corn, Field); test: Postemergence herbicidal evaluation; format: in vivo, Zea mays; settings: for ZEAMX herbicidal rating: postemergence
Method in brief: as §1

[5] = system: ABUTH (Velvetleaf); test: Preemergence herbicidal evaluation; format: in vivo, Abutilon theophrasti; settings: rated 4-5 weeks after treatment
Method in brief: (§2)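 Visual 0-9 rating vs control (stand, vigor, malformation, size, chlorosis, overall appearance), scored 4-5 wk after spraying. Seeded soil cups were treated preemergence with compound in aqueous acetone, ~0.0156-0.500 kg/ha equivalent.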

[6] = system: AMBEL (Ragweed, Common); test: Preemergence herbicidal evaluation; format: in vivo, Ambrosia artemisifolia; settings: rated 4-5 weeks after treatment
Method in brief: as §2

[7] = system: CASOB (Sicklepod); test: Preemergence herbicidal evaluation; format: in vivo, Cassia obtusifolia; settings: rated 4-5 weeks after treatment
Method in brief: as §2

[8] = system: GALAP (Galium); test: Preemergence herbicidal evaluation; format: in vivo, Galium aparine; settings: rated 4-5 weeks after treatment
Method in brief: as §2

[9] = system: ECHCG (Barnyardgrass); test: Preemergence herbicidal evaluation; format: in vivo, Echinochloa crus-galli; settings: rated 4-5 weeks after treatment
Method in brief: as §2

[10] = system: SETVI (Foxtail, Green); test: Preemergence herbicidal evaluation; format: in vivo, Setaria viridis; settings: rated 4-5 weeks after treatment
Method in brief: as §2

[11] = system: GLXMAW (Soybean, Williams); test: Preemergence herbicidal evaluation; format: in vivo, Glycine max, (L.) Merr. cv Williams; settings: rated 4-5 weeks after treatment
Method in brief: as §2

[12] = system: CYPSE (Flatsedge); test: Preemergence weed control under flooded paddy conditions; format: in vivo, Cyperus serotinus; settings: rated 3-4 weeks after treatment
Method in brief: (§3)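 Seeds or propagules sown in silt loam kept flooded 1.5-3 cm; compounds in 50/50 acetone/water pipetted into flood water at about 0.0313 to 0.500 kg/ha. Greenhouse; visual 0-9 rating versus untreated control 3-4 weeks after treatment.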

[13] = system: SAGPY (Arrowhead (Pygmaea)); test: as above; format: in vivo, Sagittaria pygmaea; settings: rated 3-4 weeks after treatment
Method in brief: as §3

[14] = system: ECHORC (Watergrass (Calif.)); test: Postemergence weed control under flooded paddy conditions; format: in vivo, Echinochloa oryzoides; settings: postemergence weeds, 3-4 weeks after treatment
Method in brief: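 Injury ratings (0–9 scale covering stand, vigor, malformation, size, chlorosis and overall appearance versus control) were made three to four weeks after treatment. Test material, about 0.0313 to 0.500 kg/ha a.i. in 50/50 v/v aqueous/acetone, was added to flood water 1.5 to 3 cm deep over 3 to 5 cm weeds and 1.5 to 2.5 leaf rice.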

Cn1c(C(F)(F)F)cc(=O)n(-c2cc(N=C3SCC(=O)N3CC(=O)NS(C)(=O)=O)c(Cl)cc2F)c1=O [Compound 38, 2-{{2-Chloro-5-[3,6-dihydro-3-methyl-2,6-dioxo-4-(trifluoromethyl)-1(2H)-pyrimidinyl]-4-fluoro-phenyl}imino}-N-(methylsulfonyl)-4-oxo-3-thiazolidineacetamide]
0.0: Preemergence herbicidal rating AMBEL ([6]; rate 0.0313 kg/ha) | Preemergence herbicidal rating AMBEL ([6]; rate 0.0625 kg/ha) | Preemergence herbicidal rating AMBEL ([6]; rate 0.1250 kg/ha) | Preemergence herbicidal rating CASOB ([7]; rate 0.0313 kg/ha) | Preemergence herbicidal rating CASOB ([7]; rate 0.0625 kg/ha) | Preemergence herbicidal rating CASOB ([7]; rate 0.1250 kg/ha) | Preemergence herbicidal rating GALAP ([8]; rate 0.0313 kg/ha) | Preemergence herbicidal rating ECHCG ([9]; rate 0.0313 kg/ha) | Preemergence herbicidal rating ECHCG ([9]; rate 0.0625 kg/ha) | Preemergence herbicidal rating ECHCG ([9]; rate 0.1250 kg/ha) | Preemergence herbicidal rating SETVI ([10]; rate 0.0313 kg/ha) | Preemergence herbicidal rating GLXMAW ([11]; rate 0.0313 kg/ha) | Herbicidal rating CYPSE ([12]; 0.0313 kg/ha) | Herbicidal rating CYPSE ([12]; 0.0625 kg/ha) | Herbicidal rating CYPSE ([12]; 0.1250 kg/ha) | Herbicidal rating SAGPY ([13]; 0.0313 kg/ha) | Herbicidal rating ECHORC ([14]; rate 0.0313 kg/ha)
7.5: Postemergence herbicidal rating ZEAMX ([4]; Rate 0.0156 kg/ha) | Postemergence herbicidal rating ZEAMX ([4]; Rate 0.0313 kg/ha) | Postemergence herbicidal rating ZEAMX ([4]; Rate 0.0625 kg/ha) | Postemergence herbicidal rating ZEAMX ([4]; Rate 0.1250 kg/ha) | Postemergence herbicidal rating ZEAMX ([4]; Rate 0.2500 kg/ha)
7.0: Preemergence herbicidal rating SETVI ([10]; rate 0.1250 kg/ha) | Herbicidal rating ECHORC ([14]; rate 0.2500 kg/ha)
8.0: Postemergence herbicidal rating GLXMAW ([3]; Rate 0.0625 kg/ha) | Preemergence herbicidal rating GALAP ([8]; rate 0.1250 kg/ha)
6.5: Postemergence herbicidal rating GLXMAW ([3]; Rate 0.0156 kg/ha) | Postemergence herbicidal rating GLXMAW ([3]; Rate 0.0313 kg/ha)
5.0: Postemergence herbicidal rating AMBEL ([1]; Rate 0.0313 kg/ha) | Postemergence herbicidal rating AMBEL ([1]; Rate 0.0625 kg/ha) | Preemergence herbicidal rating AMBEL ([6]; rate 0.2500 kg/ha) | Preemergence herbicidal rating GALAP ([8]; rate 0.0625 kg/ha)
4.0: Herbicidal rating SAGPY ([13]; 0.1250 kg/ha) | Herbicidal rating ECHORC ([14]; rate 0.1250 kg/ha)
2.0: Preemergence herbicidal rating GLXMAW ([11]; rate 0.0625 kg/ha) | Preemergence herbicidal rating GLXMAW ([11]; rate 0.1250 kg/ha) | Herbicidal rating ECHORC ([14]; rate 0.0625 kg/ha)
3.0: Postemergence herbicidal rating AMBEL ([1]; Rate 0.0156 kg/ha) | Preemergence herbicidal rating CASOB ([7]; rate 0.2500 kg/ha) | Preemergence herbicidal rating SETVI ([10]; rate 0.0625 kg/ha) | Herbicidal rating CYPSE ([12]; 0.2500 kg/ha) | Herbicidal rating SAGPY ([13]; 0.0625 kg/ha)
1.0: Preemergence herbicidal rating ECHCG ([9]; rate 0.2500 kg/ha)
6.0: Preemergence herbicidal rating GLXMAW ([11]; rate 0.2500 kg/ha)
9.0: Postemergence herbicidal rating AMBEL ([1]; Rate 0.1250 kg/ha) | Postemergence herbicidal rating AMBEL ([1]; Rate 0.2500 kg/ha) | Postemergence herbicidal rating IPOHE ([2]; Rate 0.0156 kg/ha) | Postemergence herbicidal rating IPOHE ([2]; Rate 0.0313 kg/ha) | Postemergence herbicidal rating IPOHE ([2]; Rate 0.0625 kg/ha) | Postemergence herbicidal rating IPOHE ([2]; Rate 0.1250 kg/ha) | Postemergence herbicidal rating IPOHE ([2]; Rate 0.2500 kg/ha) | Preemergence herbicidal rating ABUTH ([5]; rate 0.0313 kg/ha) | Preemergence herbicidal rating ABUTH ([5]; rate 0.0625 kg/ha) | Preemergence herbicidal rating ABUTH ([5]; rate 0.1250 kg/ha) | Preemergence herbicidal rating ABUTH ([5]; rate 0.2500 kg/ha) | Preemergence herbicidal rating GALAP ([8]; rate 0.2500 kg/ha) | Preemergence herbicidal rating SETVI ([10]; rate 0.2500 kg/ha) | Herbicidal rating SAGPY ([13]; 0.2500 kg/ha)
8.5: Postemergence herbicidal rating GLXMAW ([3]; Rate 0.1250 kg/ha) | Postemergence herbicidal rating GLXMAW ([3]; Rate 0.2500 kg/ha)

CCOC(=O)CN1C(=O)C(=C(C)C)S/C1=N/c1cc(-n2c(=O)cc(C(F)(F)F)n(C)c2=O)c(F)cc1Cl [Compound 20, Ethyl 2-{{2-chloro-5-[3,6-dihydro-3-methyl-2,6-dioxo-4-(trifluoromethyl)-1(2H)-pyrimidinyl]-4-fluorophenyl}imino}-5-isopropylidene-4-oxo-3-thiazolidineacetate]
4.0: AMBEL herbicidal rating ([1]; rate 0.0158 kg/ha) | GLXMAW herbicidal rating ([3]; rate 0.0315 kg/ha) | GLXMAW preemergence herbicidal rating ([11]; rate 0.2500 kg/ha)
5.5: GLXMAW herbicidal rating ([3]; rate 0.0630 kg/ha) | ZEAMX herbicidal rating ([4]; rate 0.0630 kg/ha)
4.5: ZEAMX herbicidal rating ([4]; rate 0.0158 kg/ha)
7.0: SETVI preemergence herbicidal rating ([10]; rate 0.2500 kg/ha) | Herbicidal rating ECHORC ([14]; rate 0.1160 kg/ha) | Herbicidal rating ECHORC ([14]; rate 0.2310 kg/ha) | Herbicidal rating ECHORC ([14]; rate 0.4630 kg/ha)
3.5: GLXMAW herbicidal rating ([3]; rate 0.0158 kg/ha)
3.0: IPOHE herbicidal rating ([2]; rate 0.0315 kg/ha) | AMBEL preemergence herbicidal rating ([6]; rate 0.2500 kg/ha) | Herbicidal rating SAGPY ([13]; 0.4630 kg/ha)
9.0: IPOHE herbicidal rating ([2]; rate 0.0158 kg/ha) | IPOHE herbicidal rating ([2]; rate 0.0630 kg/ha) | ABUTH preemergence herbicidal rating ([5]; rate 0.1250 kg/ha) | ABUTH preemergence herbicidal rating ([5]; rate 0.2500 kg/ha) | CASOB preemergence herbicidal rating ([7]; rate 0.2500 kg/ha)
5.0: AMBEL herbicidal rating ([1]; rate 0.0315 kg/ha) | ZEAMX herbicidal rating ([4]; rate 0.0315 kg/ha) | Herbicidal rating CYPSE ([12]; 0.1160 kg/ha) | Herbicidal rating CYPSE ([12]; 0.2310 kg/ha) | Herbicidal rating CYPSE ([12]; 0.4630 kg/ha)
6.0: AMBEL herbicidal rating ([1]; rate 0.0630 kg/ha)
0.0: ABUTH preemergence herbicidal rating ([5]; rate 0.0625 kg/ha) | AMBEL preemergence herbicidal rating ([6]; rate 0.0625 kg/ha) | AMBEL preemergence herbicidal rating ([6]; rate 0.1250 kg/ha) | CASOB preemergence herbicidal rating ([7]; rate 0.0625 kg/ha) | CASOB preemergence herbicidal rating ([7]; rate 0.1250 kg/ha) | GALAP preemergence herbicidal rating ([8]; rate 0.0625 kg/ha) | GALAP preemergence herbicidal rating ([8]; rate 0.1250 kg/ha) | GALAP preemergence herbicidal rating ([8]; rate 0.2500 kg/ha) | ECHCG preemergence herbicidal rating ([9]; rate 0.0625 kg/ha) | ECHCG preemergence herbicidal rating ([9]; rate 0.1250 kg/ha) | ECHCG preemergence herbicidal rating ([9]; rate 0.2500 kg/ha) | SETVI preemergence herbicidal rating ([10]; rate 0.0625 kg/ha) | SETVI preemergence herbicidal rating ([10]; rate 0.1250 kg/ha) | GLXMAW preemergence herbicidal rating ([11]; rate 0.0625 kg/ha) | GLXMAW preemergence herbicidal rating ([11]; rate 0.1250 kg/ha) | Herbicidal rating SAGPY ([13]; 0.1160 kg/ha) | Herbicidal rating SAGPY ([13]; 0.2310 kg/ha)
